ChEMBL document CHEMBL4145494, “Synthesis and biological evaluation of aurora kinases inhibitors based on N-trisubstituted pyrimidine scaffold” (Eur J Med Chem, 2018)
Blank lines part the entries; values can stand above or below the molecule they belong to. The source made the active and inactive calls. No cut-off for these calls is given here.

Tests used:
[1] = target: Aurora kinase B (Homo sapiens, UniProt Q96GD4); test: Inhibition of AURKB (unknown origin) using FAM-labeled peptide substrate preincubated for 10 mins followed by substrate addition measured after 60 mins by caliper assay
[2] = test system: U-937; test: Antiproliferative activity against human U937 cells after 48 hrs by CCK8 assay; format: functional, cell-based; details: U-937, 48 h
[3] = test system: MCF7; test: Antiproliferative activity against human MCF7 cells after 48 hrs by CCK8 assay; format: functional, cell-based; details: MCF7, 48 h
[4] = test system: K562; test: Antiproliferative activity against human K562 cells after 48 hrs by CCK8 assay; format: functional, cell-based; details: K562, 48 h
[5] = test system: MDA-MB-231; test: Antiproliferative activity against human MDA-MB-231 cells after 48 hrs by CCK8 assay; format: functional, cell-based; details: MDA-MB-231, 48 h
[6] = test system: A-431; test: Antiproliferative activity against human A431 cells after 48 hrs by CCK8 assay; format: functional, cell-based; details: A-431, 48 h
[7] = test system: HeLa; test: Antiproliferative activity against human HeLa cells after 48 hrs by CCK8 assay; format: functional, cell-based
[8] = target: T1, Aurora kinase A (Homo sapiens, UniProt O14965); test: Inhibition of AURKA (unknown origin) using FAM-labeled peptide substrate preincubated for 10 mins followed by substrate addition measured after 60 mins by caliper assay
T1 sequence (O14965 whole entry): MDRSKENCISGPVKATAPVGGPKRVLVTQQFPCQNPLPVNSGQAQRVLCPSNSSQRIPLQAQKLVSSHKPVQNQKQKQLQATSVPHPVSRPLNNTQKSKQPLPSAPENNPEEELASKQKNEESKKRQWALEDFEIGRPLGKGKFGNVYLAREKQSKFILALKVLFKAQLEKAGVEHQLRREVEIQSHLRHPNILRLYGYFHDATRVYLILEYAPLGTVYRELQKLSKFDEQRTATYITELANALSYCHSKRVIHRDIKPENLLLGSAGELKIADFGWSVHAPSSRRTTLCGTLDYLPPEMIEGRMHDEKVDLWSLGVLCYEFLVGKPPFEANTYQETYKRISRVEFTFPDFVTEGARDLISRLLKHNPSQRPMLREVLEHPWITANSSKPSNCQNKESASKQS

[9] = test system: HCT-116; test: Antiproliferative activity against human HCT116 cells after 48 hrs by CCK8 assay; format: functional, cell-based; details: HCT-116, 48 h
[10] = test system: MDA-MB-231; test: Inhibition of alpha-tubulin in human MDA-MB-231 cells assessed as abolishment of regular location of protein at 0.5 uM after 48 hrs by DAPI staining based immunofluorescence assay; format: cell-based
[11] = test system: MDA-MB-231; test: Induction of aberrant spindle formation with tripolar and tetrapolar occurrence in human MDA-MB-231 cells at 1 uM after 48 hrs by DAPI staining based immunofluorescence assay; format: functional, cell-based
[12] = test system: MDA-MB-231; test: Induction of chromosome alignment defects in human MDA-MB-231 cells at 1 uM after 48 hrs by DAPI staining based immunofluorescence assay; format: functional, cell-based
[13] = test system: U-937; test: Antitumor activity against human U937 cells xenografted in nude mouse assessed as tumor size at 50 mg/kg, ip administered once daily for 9 days (reference value: 1069.16 +/- 327.22 mm3); format: functional
[14] = test system: U-937; test: Induction of apoptosis in human U937 cells assessed as live cells at 1.2 uM after 48 hrs by Annexin-V/propidium iodide staining based flow cytometry (reference value: 94.6%); format: functional
[15] = test system: U-937; test: Induction of apoptosis in human U937 cells assessed as late apoptotic cells at 0.6 uM after 48 hrs by Annexin-V/propidium iodide staining based flow cytometry (reference value: 1.93%); format: functional
[16] = test system: U-937; test: Induction of apoptosis in human U937 cells assessed as necrotic cells at 1.2 uM after 48 hrs by Annexin-V/propidium iodide staining based flow cytometry (reference value: 1.13%); format: functional
[17] = test system: U-937; test: Induction of apoptosis in human U937 cells assessed as late apoptotic cells at 0.3 uM after 48 hrs by Annexin-V/propidium iodide staining based flow cytometry (reference value: 1.93%); format: functional
[18] = test system: Mus musculus; test: Toxicity in nude mouse xenografted with human U937 cells assessed as body weight change at 50 to 100 mg/kg, ip administered once daily for 9 days; format: organism-based; details: in vivo, 216 h
[19] = test system: U-937; test: Induction of apoptosis in human U937 cells assessed as early apoptotic cells at 0.3 uM after 48 hrs by Annexin-V/propidium iodide staining based flow cytometry (reference value: 2.38%); format: functional
[20] = Stability of the compound up to 6 months at 40 +/- 2 degC and 75 +/- 5% relative humidity by HPLC analysis; format: physicochemical
[21] = test system: U-937; test: Cell cycle arrest in human U937 cells assessed as decrease in 2N DNA content at 0.1 to 1 uM after 24 hrs by propidium iodide staining based flow cytometry; format: functional
[22] = test system: U-937; test: Induction of apoptosis in human U937 cells assessed as early apoptotic cells at 0.6 uM after 48 hrs by Annexin-V/propidium iodide staining based flow cytometry (reference value: 2.38%); format: functional
[23] = test system: U-937; test: Induction of apoptosis in human U937 cells assessed as late apoptotic cells at 1.2 uM after 48 hrs by Annexin-V/propidium iodide staining based flow cytometry (reference value: 1.93%); format: functional
[24] = test system: NB-4; test: Cell cycle arrest in human NB4 cells assessed as decrease in 2N DNA content at 0.1 to 1 uM after 24 hrs by propidium iodide staining based flow cytometry; format: functional
[25] = test system: U-937; test: Antitumor activity against human U937 cells xenografted in nude mouse assessed as tumor weight at 50 mg/kg, ip administered once daily for 9 days (reference value: 1.64 +/- 0.22 g); format: functional
[26] = test system: K562; test: Cell cycle arrest in human K562 cells assessed as accumulation at G2/M phase at 0.1 to 1 uM after 24 hrs by propidium iodide staining based flow cytometry relative to control; format: functional
[27] = test system: U-937; test: Cell cycle arrest in human U937 cells assessed as accumulation at G2/M phase at 0.1 to 1 uM after 24 hrs by propidium iodide staining based flow cytometry relative to control; format: functional
[28] = test system: HL-60; test: Antiproliferative activity against human HL60 cells after 48 hrs by CCK8 assay; format: functional, cell-based; details: HL-60, 48 h
[29] = test system: U-937; test: Induction of apoptosis in human U937 cells assessed as live cells at 0.3 uM after 48 hrs by Annexin-V/propidium iodide staining based flow cytometry (reference value: 94.6%); format: functional
[30] = test system: U-937; test: Induction of apoptosis in human U937 cells assessed as live cells at 0.6 uM after 48 hrs by Annexin-V/propidium iodide staining based flow cytometry (reference value: 94.6%); format: functional
[31] = test system: U-937; test: Antitumor activity against human U937 cells xenografted in nude mouse assessed as tumor size at 100 mg/kg, ip administered once daily for 9 days (reference value: 1069.16 +/- 327.22 mm3); format: functional
[32] = test system: U-937; test: Induction of apoptosis in human U937 cells assessed as necrotic cells at 0.3 uM after 48 hrs by Annexin-V/propidium iodide staining based flow cytometry (reference value: 1.13%); format: functional
[33] = test system: NB-4; test: Cell cycle arrest in human NB4 cells assessed as accumulation at G2/M phase at 0.1 to 1 uM after 24 hrs by propidium iodide staining based flow cytometry relative to control; format: functional
[34] = test system: U-937; test: Induction of apoptosis in human U937 cells assessed as necrotic cells at 0.6 uM after 48 hrs by Annexin-V/propidium iodide staining based flow cytometry (reference value: 1.13%); format: functional
[35] = test system: U-937; test: Induction of apoptosis in human U937 cells assessed as early apoptotic cells at 1.2 uM after 48 hrs by Annexin-V/propidium iodide staining based flow cytometry (reference value: 2.38%); format: functional
[36] = test system: U-937; test: Antitumor activity against human U937 cells xenografted in nude mouse assessed as tumor weight at 100 mg/kg, ip administered once daily for 9 days (reference value: 1.64 +/- 0.22 g); format: functional
[37] = test system: K562; test: Cell cycle arrest in human K562 cells assessed as decrease in 2N DNA content at 0.1 to 1 uM after 24 hrs by propidium iodide staining based flow cytometry; format: functional
[38] = test system: NB-4; test: Antiproliferative activity against human NB4 cells after 48 hrs by CCK8 assay; format: functional, cell-based; details: NB-4, 48 h

Aurora kinase B, sequence (Q96GD4 whole entry): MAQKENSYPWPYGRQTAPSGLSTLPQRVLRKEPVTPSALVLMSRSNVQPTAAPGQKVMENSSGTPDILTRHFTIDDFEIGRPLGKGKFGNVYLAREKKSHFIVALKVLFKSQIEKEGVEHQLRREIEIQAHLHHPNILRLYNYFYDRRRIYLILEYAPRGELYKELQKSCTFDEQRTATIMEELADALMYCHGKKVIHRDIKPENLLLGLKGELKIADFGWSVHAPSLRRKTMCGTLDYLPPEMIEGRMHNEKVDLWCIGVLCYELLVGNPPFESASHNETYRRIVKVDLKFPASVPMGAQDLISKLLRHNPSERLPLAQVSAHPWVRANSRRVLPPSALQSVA

SMILES: Cc1cc(Nc2cc(N3CCN(C)CC3)nc(Nc3ccc4c(c3)OCO4)n2)n[nH]1
IC50 [1]: 91.7 nM
IC50 [2]: 58.4 nM
IC50 [3]: 911 nM
IC50 [4]: 233 nM
IC50 [5]: 206 nM
IC50 [6]: 419 nM
IC50 [7]: 457 nM
IC50 [8]: 20 nM
IC50 [9]: 719 nM

SMILES: COc1cc(Nc2ncc3c(n2)-c2ccc(Cl)cc2C(c2c(F)cccc2OC)=NC3)ccc1C(=O)O
inhibition [10]: Active
Activity [11]: Active
Activity [12]: Active

SMILES: COC(=O)c1ccc(Nc2nc(Nc3cc(C)[nH]n3)cc(N3CCN(C)CC3)n2)cc1OC
IC50 [1]: 442 nM
IC50 [2]: 545 nM
IC50 [3]: 10300 nM
IC50 [4]: 762 nM
IC50 [5]: 872 nM
IC50 [6]: 1220 nM
IC50 [7]: 872 nM
IC50 [8]: 67 nM
IC50 [9]: 1140 nM

SMILES: Cc1cc(Nc2cc(N3CCN(C)CC3)nc(Nc3cccc(F)c3)n2)n[nH]1
IC50 [1]: 102 nM
IC50 [2]: 33.1 nM
IC50 [3]: 1260 nM
IC50 [4]: 184 nM
IC50 [5]: 166 nM
IC50 [6]: 201 nM
IC50 [7]: 486 nM
IC50 [8]: 25 nM
IC50 [9]: 317 nM

The remaining molecules from weak to strong by IC50 [1], led by results:

IC50 [1]: 89.2 nM
IC50 [2]: 29.9 nM
IC50 [3]: 1290 nM
IC50 [4]: 195 nM
IC50 [5]: 160 nM
IC50 [6]: 177 nM
IC50 [7]: 438 nM
IC50 [8]: 17 nM
IC50 [9]: 339 nM
SMILES: Cc1cc(Nc2cc(N3CCN(C)CC3)nc(Nc3ccc(F)c(F)c3)n2)n[nH]1

IC50 [1]: 25.7 nM
IC50 [2]: 12.2 nM
IC50 [3]: 213 nM
Stability [20]: Stable
IC50 [4]: 95.2 nM
IC50 [5]: 95.5 nM
IC50 [6]: 80.9 nM
IC50 [7]: 277 nM
IC50 [28]: 34 nM
IC50 [8]: 7.1 nM
IC50 [9]: 180 nM
SMILES: Cc1cc(Nc2cc(N3CCN(C)CC3)nc(Nc3ccc(F)c(Cl)c3)n2)n[nH]1
Activity [13]: 753.6 mm3
Activity [14]: 86.3%
Activity [15]: 6.95%
Activity [16]: 4.34%
Activity [17]: 6.76%
inhibition [10]: Active
Activity [18]: Non-Toxic
Activity [19]: 1.76%
Activity [11]: Active
Activity [21]: Active
Activity [22]: 2.11%
Activity [23]: 7.15%
Activity [24]: Active
Activity [25]: 0.93 g
Activity [26]: >90%
Activity [12]: Active
Activity [27]: >90%
Activity [29]: 88.5%
Activity [30]: 67.8%
Activity [31]: 528.88 mm3
Activity [32]: 3.01%
Activity [33]: >90%
Activity [34]: 3.12%
Activity [35]: 2.22%
Activity [36]: 0.54 g
Activity [37]: Active
IC50 [38]: 500 nM
